Experimental data taken from ChEMBL document CHEMBL1201862, “PubChem BioAssay data set” (2004).
Calls of active or inactive are those of the source.

Legend:
[1] = molecular target: T1, Mannose-6-phosphate isomerase (Homo sapiens, UniProt P34949); test: human PMI inhibitors, high substrate, primary screen, biochemical, fluorescence intensity, high mannose 6-phosphate (AID 1220)
T1 sequence (P34949 whole entry): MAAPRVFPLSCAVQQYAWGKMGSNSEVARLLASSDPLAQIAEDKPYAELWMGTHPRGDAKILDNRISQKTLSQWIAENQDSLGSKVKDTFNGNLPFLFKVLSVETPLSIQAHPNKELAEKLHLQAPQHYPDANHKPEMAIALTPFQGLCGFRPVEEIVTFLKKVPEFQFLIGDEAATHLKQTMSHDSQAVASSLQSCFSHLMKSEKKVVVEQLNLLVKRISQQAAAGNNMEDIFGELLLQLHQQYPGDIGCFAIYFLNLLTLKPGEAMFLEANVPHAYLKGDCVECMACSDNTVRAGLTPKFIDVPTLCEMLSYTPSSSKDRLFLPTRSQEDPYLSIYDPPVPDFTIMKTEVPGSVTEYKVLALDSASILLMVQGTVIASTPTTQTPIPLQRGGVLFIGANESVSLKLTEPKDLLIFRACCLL

[2] = molecular target: T2, Sentrin-specific protease 6 (Homo sapiens, UniProt Q9GZR1); test: SAR Analysis of small molecule inhibitors of Sentrin-specific protease 6 (SENP6) using a Luminescent assay. [Related pubchem assays (depositor defined):AID2582, AID2599]; assay type: functional
T2 sequence (Q9GZR1 whole entry): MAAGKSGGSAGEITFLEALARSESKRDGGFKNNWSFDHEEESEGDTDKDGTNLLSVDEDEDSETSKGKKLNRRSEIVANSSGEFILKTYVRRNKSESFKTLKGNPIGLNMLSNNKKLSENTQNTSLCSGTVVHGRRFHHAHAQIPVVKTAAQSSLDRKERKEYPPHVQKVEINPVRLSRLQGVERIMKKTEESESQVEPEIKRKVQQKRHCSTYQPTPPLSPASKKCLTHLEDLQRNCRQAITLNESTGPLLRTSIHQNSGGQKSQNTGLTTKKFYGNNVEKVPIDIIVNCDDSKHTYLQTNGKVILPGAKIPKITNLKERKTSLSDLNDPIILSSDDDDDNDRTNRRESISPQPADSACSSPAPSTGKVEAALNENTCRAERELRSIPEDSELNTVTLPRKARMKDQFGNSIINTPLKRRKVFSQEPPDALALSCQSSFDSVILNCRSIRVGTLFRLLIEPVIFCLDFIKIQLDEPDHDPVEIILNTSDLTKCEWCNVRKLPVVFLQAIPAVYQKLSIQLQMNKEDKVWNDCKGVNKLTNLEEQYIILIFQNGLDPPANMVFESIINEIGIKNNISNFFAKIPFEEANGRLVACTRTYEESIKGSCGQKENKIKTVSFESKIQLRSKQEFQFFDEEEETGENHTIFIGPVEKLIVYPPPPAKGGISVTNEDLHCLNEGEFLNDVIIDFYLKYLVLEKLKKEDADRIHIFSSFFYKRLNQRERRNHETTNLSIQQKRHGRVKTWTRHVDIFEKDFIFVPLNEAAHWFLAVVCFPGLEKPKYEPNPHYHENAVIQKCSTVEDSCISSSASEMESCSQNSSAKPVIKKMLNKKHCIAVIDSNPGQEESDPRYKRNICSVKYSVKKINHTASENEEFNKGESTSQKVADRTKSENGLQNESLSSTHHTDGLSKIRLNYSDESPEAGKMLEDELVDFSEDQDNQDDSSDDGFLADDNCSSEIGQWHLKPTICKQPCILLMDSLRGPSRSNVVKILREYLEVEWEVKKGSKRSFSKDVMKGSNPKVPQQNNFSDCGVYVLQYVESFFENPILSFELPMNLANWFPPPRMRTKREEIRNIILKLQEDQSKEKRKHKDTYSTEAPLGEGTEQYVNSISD

[3] = inhibitors of firefly luciferase expression or activity, dose response, H4 neuroglioma cells, luminescence (AID 1990); assay type: functional, cell-based
[4] = tested on: BJ; test: cytotoxicity toward BJ-TERT-LT-ST fibroblasts, dose response, cell-based, RAS-independent, luminescence (AID 1935); assay type: functional; conditions: Homo sapiens;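 also: BJ fibroblasts immortalized with TERT plus LT and ST oncogenes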
[5] = CellTiter-Glo luminescent dose response of DLD-1 viability loss (AID 1117352); assay type: functional

IC50 [1] | IC50 [2] | SMILES | EC50 [3] | EC50 [4] | IC50 [5]
> 50 µM (not active) | 10.5 µM (active) | Oc1ccc(/C=N/Nc2cc(N3CCCC3)nc(N3CCCC3)n2)cc1O |  |  | 
 |  | Cc1cc2nc3ccc(N(C)C)cc3[s+]c2cc1N [TOLONIUM CHLORIDE] | 8.36 µM (active) | 9.19 µM (inconclusive) | 9.38 µM (inactive)
